These results are taken from patent publication US20120245029A1, “NOVEL PHOSPH(ON)ATE- AND SULF(ON)ATE-BASED PHOSPHATE MODIFIED NUCLEOSIDES USEFUL AS SUBSTRATES FOR POLYMERASES AND AS ANTIVIRAL AGENTS” (priority 2009, published 2012).

Structures are written as SMILES.

The target in assay [1] is T1, HIV-1 RT (Human immunodeficiency virus type 1 group M subtype B, UniProt P04585).
T1 construct: HIV-1 Reverse Transcriptase serves, in the HIV-1 viral replication process, as catalyst; purchased Ambion
The assay is described as follows: Gel-based single nucleotide incorporation assay by HIV-1 RT (primer-template P1T1). The assay is classed as biochemical. The conditions noted are these: for % of P + 1: P1T1 125 nM; for conversion within 60 minutes: P1T1. As for the experimental part: (§1) DNA polymerase reactions: end-labeled primer was annealed to its template by combining primer and template in a molar ratio of 1:2 and heating the mixture to 70° C. for 10 minutes followed by slow cooling to room temperature over a period of 1.5 hour. For the incorporation of a modified nucleoside, a series of 20 μL-batch reactions was performed with the enzyme HIV-1 RT (Ambion, 10 U/μL stock soln, specific activity 8.095 Wring, concentration 1.2 mg/mL). The final mixture contained 125 nM primer template complex, RT buffer (250 mM Tris.HCl, 250 mM KCl, 50 mM MgCl2, 2.5 mM spermidine, 50 mM dithiothreitol (DTT); pH 8.3), 0.025 U/μL HIV-1 RT, and different concentrations of the phosphoramidate to be tested (1 mM, 500 μM, 200 μM and 100 μM).
(§2) Electrophoresis: all polymerase reaction aliquots (2.5 μL) were quenched by the addition of 10 μL of loading buffer (90% formamide, 0.05% bromophenol blue, 0.05% xylene cyanol and 50 mM ethylenediaminetetraacetic acid (EDTA)). Samples were heated at 85° C. for 5 minutes prior to analysis by electrophoresis for 2.5 hours at 2000 V on a 30 cm×40 cm×0.4 mm 20% (19:1 mono:bis) denaturing gel in the presence of a 100 mM Tris-borate, 2.5 mM EDTA buffer; pH 8.3. Products were visualized by phosphorimaging. The amount of radioactivity in the bands corresponding to the products of enzymatic reactions was determined by using the imaging device Cyclone@ and the Optiquant image analysis software (Perkin Elmer).
Here, the ability of phosphoramidate analogues as substrate for HIV-1 RT was investigated by the gel-based single nucleotide incorporation assay. The natural nucleoside triphosphate (dATP) was used as reference.
The ability of HIV-1 reverse transcriptase to incorporate phosphoramidate analogues 2-6 was analysed by gel-based single-nucleotide-incorporation assays using the primer-template complex P1T1.

The target of assay [2] is T1, HIV-1 RT. The description is as above. The class given is biochemical. The conditions noted are these: among phosphoramidate analogues 1-5.
Assay [3] concerns the target T1, HIV-1 RT. The assay is described as follows: Elongation of primer P1 directed by template T2 by HIV-1 RT. The assay is classed as biochemical. The conditions noted are these: for % product P + 1 / % product P + 2 / % product P + 3 / % product P + 4 / % product P + 5 / % product P + 6 / % product P + 7: 120 minutes reaction, P1T2, percentage of the total amount of radio-nucleotides. As for the experimental part: as §1, §2
In order to further investigate the potentiality of the leaving groups of this invention, L-Cys-dAMP (2) and 3-phosphono-L-Ala-dAMP (3) were tested in the template dependent incorporation of more than one phosphoramidate nucleotides by HIV-1 RT (FIG. 4). For this purpose, Primer P1 and template T2 containing an overhang of seven thymidine residues and four nucleobases (GGAC) at the 3′-end were used.
In order to investigate the strand elongation capacity of compound 2, a template dependent incorporation of more than one nucleotide experiment was carried out. In this experiment HIV-1 RT and P1T2 duplex, where seven thymidine bases overhang of the template is flanked by four non-thymidine units at the 3′-end were used. A range of concentration of the building block was incubated with the primer-template complex and 0.025 U/μL of enzyme at the appropriate temperature, samples were quenched after 15, 30, 60, 90 and 120 minutes respectively and analyzed by 20% polyacrylamide gel electrophoresis.

The target in assay [4] is T1, HIV-1 RT. The assay can be described thus: Steady-state kinetics of single nucleotide incorporation by HIV-1 RT. The assay is classed as biochemical. The conditions noted are these: P1T1 125 nM, HIV-1 RT 0.025 U/μL, 37° C. The procedure:
The efficiency of incorporation by HIV-1 RT of 3-phosphono-L-Ala-dAMP (3) was investigated by determination of the kinetic parameters Km and Vmax. The steady-state kinetics assay was carried out as follows. The reaction was started by adding HIV-1 RT to P1-T1 complex, buffer, 3-phosphono-L-Ala-dAMP (3) and dATP. The final mixture (20 μL) contained 0.025 U/μL HIV-1 RT, buffer, 125 nM primer-template complex, and various concentrations 3-phosphono-L-Ala-dAMP and dATP. The range of concentrations for phosphoamidates was optimized according to a Km value for the incorporation of an individual nucleotide. In the case of HIV-1 RT, reaction mixtures containing the enzyme in concentration (0.025 U/μL) to attain 5-25% conversion and appropriate substrate concentration (0.5-100 μM used for 3-phosphono-L-Ala-dAMP (3) and 0.1-10 μM used for dATP) were incubated at 37° C. and run for 8-10 different time intervals (2-20 minutes). The incorporation velocities were calculated based on the percentage of single-nucleotide extension product (P+1 band). The kinetic parameters (Vmax and Km) were determined by plotting V (nM/min) versus substrate concentration (μM) and fitting the data point to a nonlinear Michaelis-Menten regression using GraphPad Prism software.

The target of assay [5] is T1, HIV-1 RT. As to conditions: previous experiments / already known; cited from earlier work.

For `Nc1ncnc2c1ncn2[C@H]1C[C@H](O)[C@@H](COP(=O)(O)N[C@@H](COP(=O)(O)O)C(=O)O)O1` [Compound 5, 2′-Deoxyadenosine-5′-(O-phospho-L-serine) phosphoramidate], the “% of P + 1” value in assay [1] (100 μM substrate, 10 min) was 3.1%; in assay [1] (100 μM substrate, 20 min) it was 3.2%; in assay [1] (100 μM substrate, 30 min) it was 4.6%; in assay [1] (100 μM substrate, 60 min), 5.1%; in assay [1] (100 μM substrate, 120 min), 5.2%; in assay [1] (200 μM substrate, 10 min) it was 3.7%. Moreover, the “% of P + 1” value is 4.6% in assay [1] (200 μM substrate, 20 min); 5.8% in assay [1] (200 μM substrate, 30 min); 6.6% in assay [1] (200 μM substrate, 60 min); 9.5% in assay [1] (200 μM substrate, 120 min); 19.4% in assay [1] (1 mM substrate, 60 min). In addition, the “substrate quality for HIV-1 RT (in words)” value in assay [2] is recorded as “much less good substrates”.

Turning to `Nc1ncnc2c1ncn2[C@H]1C[C@H](O)[C@@H](COP(=O)(O)N[C@@H](CS(=O)(=O)O)C(=O)O)O1` [Compound 2, 2′-Deoxyadenosine-5′-(L-cysteic acid) phosphoramidate], the “% of P + 1” value in assay [1] (100 μM substrate, 10 min) is 7.7%; in assay [1] (100 μM substrate, 20 min) it was 7.9%; in assay [1] (100 μM substrate, 30 min) it was 8.5%; in assay [1] (100 μM substrate, 60 min) it was 9.3%; in assay [1] (100 μM substrate, 120 min) it was 9.1%; in assay [1] (200 μM substrate, 10 min), 13.7%. The “% of P + 1” value stood at 15.6% in assay [1] (200 μM substrate, 20 min); 16.0% in assay [1] (200 μM substrate, 30 min); 15.8% in assay [1] (200 μM substrate, 60 min); 18.1% in assay [1] (200 μM substrate, 120 min); 27.7% in assay [1] (500 μM substrate, 10 min); 29.6% in assay [1] (500 μM substrate, 20 min). For the same compound, the “% of P + 1” value in assay [1] (500 μM substrate, 30 min) worked out at 38.3%; in assay [1] (500 μM substrate, 60 min), 38.4%; in assay [1] (500 μM substrate, 120 min), 41.5%; in assay [1] (1 mM substrate, 60 min) it was 63.1%. In assay [3] (P1T2, gel electrophoresis), the “primer extension products (in words)” value was “only extended a primer with one and two adenine nucleobases”.

Turning to `Nc1ncnc2c1ncn2[C@H]1C[C@H](O)[C@@H](COP(=O)(O)N(CCP(=O)(O)O)CCP(=O)(O)O)O1` [Compound 7, 2′-deoxyadenosine-5′-[iminobis(ethyl phosphonate)] phosphoramidate], the “conversion within 60 minutes” value in assay [1] (500 μM substrate, 60 min) worked out at 83.2%. In addition, in assay [3], the “% product P + 1” value was 15.2%, the “% product P + 2” value was 35.4%, the “% product P + 3” value was 4.9% and the “% product P + 4” value is “traces”. In assay [3], the “% product P + 5” value worked out at 0%, the “% product P + 6” value is 0% and the “% product P + 7” value is listed as 0%.

In the case of `Nc1ncnc2c1ncn2[C@H]1C[C@H](O)[C@@H](COP(=O)(O)N[C@@H](COS(=O)(=O)O)C(=O)O)O1` [Compound 4, 2′-Deoxyadenosine-5′-(O-sulfonato-L-serine) phosphoramidate], the “% of P + 1” value in assay [1] (1 mM substrate, 60 min) was 8.1%. The “substrate quality for HIV-1 RT (in words)” value in assay [2] is listed as “much less good substrates”.

For the compound `Nc1ncnc2c1ncn2[C@H]1C[C@H](O)[C@@H](COP(=O)(O)N(CP(=O)(O)O)CP(=O)(O)O)O1` [Compound 6, 2′-deoxyadenosine-5′-[iminobis(methanephosphonate)] phosphoramidate], in assay [1] (500 μM substrate, 60 min), the “conversion within 60 minutes” value was 90%. Moreover, in assay [3], the “% product P + 1” value came to 8.6%, the “% product P + 2” value is on record as 53.1%, the “% product P + 3” value is 10.8% and the “% product P + 4” value was “traces”. In assay [3], the “% product P + 5” value turned out to be 0%, the “% product P + 6” value is 0% and the “% product P + 7” value was 0%.

As for `Nc1ncnc2c1ncn2[C@H]1CC(O)[C@@H](COP(=O)(O)N(CC(=O)O)CP(=O)(O)O)O1` (stereo partly shown) [Compound 8], in assay [1] (500 μM substrate, 60 min), the “conversion within 60 minutes” value turned out to be 70.8%. Further, in assay [3], the “% product P + 1” value stood at 11.8%, the “% product P + 2” value turned out to be 37.7%, the “% product P + 3” value worked out at 7.9% and the “% product P + 4” value is “traces”. For the same compound, in assay [3], the “% product P + 5” value was determined as 1.2%, the “% product P + 6” value is 0.6% and the “% product P + 7” value turned out to be 1.2%.

As usually defined, the Km is the substrate concentration at which the rate is half of its maximum. For orientation: Vmax means the top rate of the reaction or transport when substrate is in excess. As to `Nc1ncnc2c1ncn2[C@H]1C[C@H](O)[C@@H](COP(=O)(O)OP(=O)(O)OP(=O)(O)O)O1` [dATP, reference compound], in assay [4], the Michaelis constant (Km) came to 0.93 ± 0.26 µM and the Vmax was found to be 32.27 ± 2.32 nM/min.

With `Nc1ncnc2c1ncn2[C@H]1C[C@H](O)[C@@H](COP(=O)(O)NCCS(=O)(=O)O)O1` [Compound 1, 2′-deoxyadenosine-5′-taurine phosphoramidate], the “% of P + 1” value in assay [1] (100 μM substrate, 10 min) worked out at 3.5%; in assay [1] (100 μM substrate, 20 min) it was 4.0%; in assay [1] (100 μM substrate, 30 min) it was 4.8%; in assay [1] (100 μM substrate, 60 min) it was 6.3%; in assay [1] (100 μM substrate, 120 min), 7.2%; in assay [1] (200 μM substrate, 10 min) it was 3.1%. The “% of P + 1” value turned out to be 5.7% in assay [1] (200 μM substrate, 20 min); 4.6% in assay [1] (200 μM substrate, 30 min); 5.1% in assay [1] (200 μM substrate, 60 min); 4.3% in assay [1] (200 μM substrate, 120 min); 12.8% in assay [1] (500 μM substrate, 10 min); 16.6% in assay [1] (500 μM substrate, 20 min). Besides, the “% of P + 1” value was determined as 19.8% in assay [1] (500 μM substrate, 30 min); 20.1% in assay [1] (500 μM substrate, 60 min); 20.2% in assay [1] (500 μM substrate, 120 min); 26.6% in assay [1] (1 mM substrate, 10 min); 41.0% in assay [1] (1 mM substrate, 20 min); 55.1% in assay [1] (1 mM substrate, 30 min). The “% of P + 1” value is given as 54.7% in assay [1] (1 mM substrate, 60 min) and 55.7% in assay [1] (1 mM substrate, 120 min).

As to `Nc1ncnc2c1ncn2C1CC(O)C(COP(=O)(O)NC(CC(=O)O)C(=O)O)O1` [L-aspartic acid phosphoramidate of dAMP], the “substrate / leaving group quality for the polymerase (in words), already known” value in assay [5] is recorded as “acceptable leaving group”.

As for `Nc1ncnc2c1ncn2[C@H]1C[C@H](O)[C@@H](COP(=O)(O)N[C@@H](CO)C(=O)O)O1` [Ser-dAMP], the “substrate / leaving group quality for the polymerase (in words), already known” value in assay [5] was “poor substrate”.
